Assay results: patent publication US6432921B1, “Thrombin inhibitors” (Akzo Nobel N.V., priority 1995, dated 2002)

target: T1, Human thrombin (Homo sapiens, UniProt P00734); assay: Anti-thrombin assay: rate of hydrolysis of chromogenic substrate S-2238 by thrombin; assay type: biochemical; conditions: TNP buffer pH 7.4, 37° C., substrate S-2238, absorbance at 405 nm; concentration causing 50% inhibition of the maximum absorbance of the blank
T1 construct: purchased Centraal Laboratorium voor Bloedtransfusie, Amsterdam, The Netherlands
Protocol: Thrombin (Factor IIa) is a factor in the coagulation cascade.
The anti-thrombin activity of compounds of the present invention was assessed by measuring spectrophotometrically the rate of hydrolysis of the chromogenic substrate s-2238 exterted by thrombin. This assay for anti-thrombin activity in a buffer system was used to assess the IC50-value of a test compound.
Test medium: Tromethamine-NaCl-polyethylene glycol 6000 (TNP) buffer. Reference compound: I2581 (Kabi) Vehicle:TNP buffer. Solubilisation can be assisted with dimethylsulphoxide, methanol, ethanol, acetonitrile or tert.-butyl alcohol which are without adverse effects in concentrations up to 2.5% in the final reaction mixture.
Technique Reagents*: 1. Tromethamine-NaCl (TN) buffer. Composition of the buffer: Tromethamine(Tris) 6.057 g (50 mmol), NaCl 5.844 g (100 mmol), water to 1 l. The pH of the solution is adjusted to 7.4 at 37° C. with HCl (10 mmol·l^−1). 2. TNP buffer: Polyethylene glycol 6000 is dissolved in TN buffer to give a concentration of 3 g·l^−1. 3. S-2238 solution: One vial S-2238 (25 mg; Kabi Diagnostica, Sweden) is dissolved in 20 ml TN buffer to give a concentration of 1.25 mg·ml^−1 (2 mmol·l^−1). 4. Thrombin solution: Human thrombin (16 000 nKat·vial^−1; Centraal Laboratorium voor Bloedtransfusie, Amsterdam, The Netherlands) is dissolved in TNP buffer to give a stock solution of 835 nKat·ml^−1. Immediately before use this solution is diluted with TNP buffer to give a concentration of 3.34 nKat·ml^−1.
* All ingredients used are of analytical grade
For aqueous solutions ultrapure water (Milli-Q quality) is used.
Preparation of Test and Reference Compound Solutions
The test and reference compounds are dissolved in Milli-Q water to give stock concentrations of 10^−2 mol·l^−1. Each concentration is stepwise diluted with the vehicle to give concentrations of 10^−3, 10^−4 and 10^−5 mol·l^−1. […]
At room temperature 0.075 ml and 0.025 ml test compound or reference compound solutions or vehicle are alternately pipetted into the wells of a microtiter plate and these solutions are diluted with 0.115 ml and 0.0165 ml TNP buffer, respectively. […] Starting after 1 min of incubation, the absorbance of each sample at 405 nm is measured every 2 min. for a period of 90 min. using a kinetic microtiter plate reader (Twinreader plus, Flow Laboratories).
All data are collected in an IBM personal computer using LOTUS-MEASURE. For each compound concentration (expressed in mol·l^−1 reaction mixture) and for the blank the absorbance is plotted versus the reaction time in min.
Evaluation of responses: For each final concentration the maximum absorbance was calculated from the assay plot. […]

IC50	SMILES
4.34 µM	NCCCCC(NC(=O)CN(C(=O)CCc1ccccc1)C1CCCC1)C(=O)C(=O)O (stereo not shown) [4(b), 3-Phenylpropionyl-(N-cyclopentyl)-Gly-LysΨ[COCO]—OH]
4.5 µM	NCCCCC(NC(=O)CN(C(=O)C(N)Cc1ccccc1)C1CCCC1)C(=O)c1nccs1 [2(e), H—D-Phe-(N-cyclopentyl)-Gly-Lys-(2-thiazolyl)]
19 µM	NCCCC[C@H](NC(=O)[C@@H]1CCCN1C(=O)[C@@H](Cc1ccc(F)cc1)NCC(=O)O)C(=O)c1nccs1 [Example 39, HOOC—CH2—D-p-F-Phe-Pro-Lys-(2-thiazolyl)]
0.135 µM	NCCCCC(NC(=O)CN1CCCCC(NS(=O)(=O)Cc2ccccc2)C1=O)C(=O)C(=O)O (stereo not shown) [Example 41, BzlSO2-norLeu(cyclo)Gly-LysΨ[COCO]—OH]
